In patent US20210198277A1, “AMINE-SUBSTITUTED ARYL OR HETEROARYL COMPOUNDS” (Epizyme, Inc., priority 2016, published 2021):

The compounds below were run against T1, EHMT1 (Homo sapiens, UniProt Q9H9B1) (assay: EHMT1 enzyme assay on peptide substrate (EHMT1 PEP)). Settings: Table VI; read-out: EHMT1 PEP IC50.
T1 sequence (Q9H9B1 1-1298): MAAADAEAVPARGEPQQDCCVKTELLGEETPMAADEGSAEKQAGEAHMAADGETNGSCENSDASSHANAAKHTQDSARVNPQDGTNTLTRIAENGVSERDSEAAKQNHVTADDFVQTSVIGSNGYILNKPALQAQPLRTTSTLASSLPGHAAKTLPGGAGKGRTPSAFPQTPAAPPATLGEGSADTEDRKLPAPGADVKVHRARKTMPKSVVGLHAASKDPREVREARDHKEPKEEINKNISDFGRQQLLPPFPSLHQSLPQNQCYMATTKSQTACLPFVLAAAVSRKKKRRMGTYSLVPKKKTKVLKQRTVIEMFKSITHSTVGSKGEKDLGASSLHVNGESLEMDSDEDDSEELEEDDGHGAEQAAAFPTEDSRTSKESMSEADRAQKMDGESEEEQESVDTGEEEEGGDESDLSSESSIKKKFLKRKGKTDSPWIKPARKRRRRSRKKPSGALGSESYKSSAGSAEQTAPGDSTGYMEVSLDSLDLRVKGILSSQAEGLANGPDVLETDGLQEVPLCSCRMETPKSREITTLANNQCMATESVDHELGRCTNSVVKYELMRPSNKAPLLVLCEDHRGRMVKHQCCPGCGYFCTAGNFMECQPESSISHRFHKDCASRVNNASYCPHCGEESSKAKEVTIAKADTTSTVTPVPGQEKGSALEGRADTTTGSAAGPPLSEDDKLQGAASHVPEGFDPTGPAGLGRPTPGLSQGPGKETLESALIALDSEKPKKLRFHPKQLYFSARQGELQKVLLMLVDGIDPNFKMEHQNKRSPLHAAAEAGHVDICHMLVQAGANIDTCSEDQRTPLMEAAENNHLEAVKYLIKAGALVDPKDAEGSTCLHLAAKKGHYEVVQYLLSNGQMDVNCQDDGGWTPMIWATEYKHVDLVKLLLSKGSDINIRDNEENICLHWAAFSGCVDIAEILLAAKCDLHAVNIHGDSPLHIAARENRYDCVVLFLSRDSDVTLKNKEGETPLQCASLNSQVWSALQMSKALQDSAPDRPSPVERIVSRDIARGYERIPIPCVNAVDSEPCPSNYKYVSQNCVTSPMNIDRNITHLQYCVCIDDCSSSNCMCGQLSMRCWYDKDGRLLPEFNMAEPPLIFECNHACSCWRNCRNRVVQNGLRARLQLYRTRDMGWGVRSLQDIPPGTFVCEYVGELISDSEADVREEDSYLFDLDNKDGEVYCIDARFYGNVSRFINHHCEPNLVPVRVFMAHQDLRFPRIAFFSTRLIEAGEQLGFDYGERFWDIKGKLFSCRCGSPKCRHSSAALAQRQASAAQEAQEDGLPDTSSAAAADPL
Format: biochemical
CNc1cc(C)nc(Nc2ccc(OC)c(OCC(O)CN3CCCC3)c2)n1 (stereo in doubt) [Compound 906, (2S)-1-(2-methoxy-5-[[4-methyl-6-(methylamino)pyrimidin-2-yl]amino]phenoxy)-3-(pyrrolidin-1-yl)propan-2-ol] was tested, and the IC50 was less than 100 nM. With COc1cnc(Nc2cccc3[nH]nnc23)cc1OCCCN1CCCC1 [Compound 619] the IC50 was greater than 10000 nM. CCN1CC(COc2cc(Nc3cccn4cnnc34)ncc2OC)C1 [Compound 620] was tested, and the IC50 was greater than 10000 nM. CNc1cc(C)nc(Nc2c[nH]c(=O)c(OCCCN3CCCC3)c2)n1 [Compound 621] gave an IC50 of 1000 to 10000 nM. With CNc1cc(C)nc(Nc2cc(OCCCN3CCCC3)c3nncn3c2)n1 [Compound 622] the IC50 was 1000 to 10000 nM. CNc1cc(C)nc(Nc2cc(OCCCN3CCCC3)c3ncnn3c2)n1 [Compound 623] showed an IC50 of 1000 to 10000 nM. CNc1cc(C)nc(Nc2cc(OCCCN3CCCC3)c3[nH]nnc3c2)n1 [Compound 624] gave an IC50 of less than 100 nM. With COc1cc2c(C3CCN(C)CC3)cc(N3CCCC3)nc2cc1OCCCN1CCCC1 [Compound 625] the IC50 was less than 100 nM. In the case of COc1cc2c(C3CCN([C@H]4CCOC4)CC3)cc(C)nc2cc1OCCCN1CCCC1 [Compound 864], the IC50 is reported as less than 100 nM. For CCNc1cc(C2CCOCC2)c2cc(OC)c(OCCCN3CCCC3)cc2n1 [Compound 865], the IC50 was less than 100 nM. CNc1cc(C2CCN([C@@H]3CCOC3)CC2)c2cc(OC)c(OCCCN3CCCC3)cc2n1 [Compound 866] was tested, and the IC50 was less than 100 nM. For CNc1cc(C2CCN([C@H]3CCOC3)CC2)c2cc(OC)c(OCCCN3CCCC3)cc2n1 [Compound 867], the IC50 was less than 100 nM. Work on COc1ccc(Nc2nc(C)cc(C3CCOCC3)n2)cc1OCCCN1CCCC1 [Compound 870] yielded an IC50 greater than 10000 nM. With CNc1cc(C)nc(Nc2ccc(OC)c(C(=O)NCc3ccccc3)c2)n1 [Compound 871] the IC50 was greater than 10000 nM. CNc1cc(C)nc(Nc2ccc(OC)c(C(=O)NC3CCN(C)CC3)c2)n1 [Compound 873] was tested, and the IC50 was greater than 10000 nM. Compound CNc1cc(C)nc(Nc2ccc(CNC(=O)c3ccccc3)c(OC)c2)n1 [Compound 876] has an IC50 greater than 10000 nM. For CNc1cc(C)nc(Nc2ccc(C(=O)NCc3ccccc3)c(OC)c2)n1 [Compound 877], the IC50 was greater than 10000 nM. CNc1cc(C)nc(Nc2cnc(OC)c(OC[C@@H](O)CN3CCCC3)c2)n1 [Compound 881] was tested, and the IC50 was 100 to 1000 nM. For CNc1cc(C)nc(Nc2cnc(OC)c(OC[C@H](O)CN3CCCC3)c2)n1 [Compound 882], the IC50 was 100 to 1000 nM. With COc1ncc(Nc2nc(C)cc(NCC3COC3)n2)cc1OC[C@@H](O)CN1CCCC1 [Compound 883] the IC50 was greater than 10000 nM. COc1ncc(Nc2nc(C)cc(NCC3COC3)n2)cc1OC[C@H](O)CN1CCCC1 [Compound 884] was tested, and the IC50 was greater than 10000 nM. CNc1cc(C)nc(Nc2cc(OC[C@@H](O)CN3CCCC3)c(OC)cn2)n1 [Compound 885] was tested, and the IC50 was 1000 to 10000 nM. Work on CNc1cc(C)nc(Nc2cc(OC[C@H](O)CN3CCCC3)c(OC)cn2)n1 [Compound 886] yielded an IC50 of 1000 to 10000 nM. Compound CNC(=O)CCNc1cc(C)nc(Nc2cnc(OC)c(OCCCN3CCCC3)c2)n1 [Compound 887] has an IC50 of 100 to 1000 nM. CNC(=O)N1CC(CNc2cc(C)nc(Nc3cnc(OC)c(OCCCN4CCCC4)c3)n2)C1 [Compound 888] showed an IC50 of 100 to 1000 nM. Work on CNc1cc(C)nc(Nc2ccc(OC)c(OCCCc3nc(Cl)c[nH]3)c2)n1 [Compound 890] yielded an IC50 greater than 10000 nM. Compound CNc1cc(C)nc(Nc2ccc(OC)c(OCCCc3nc(Cl)cn3C)c2)n1 [Compound 891] has an IC50 greater than 10000 nM. Compound CNS(=O)(=O)CCNc1cc(C)nc(Nc2ccc(OC)c(OCCCN3CCCC3)c2)n1 [Compound 892] has an IC50 of less than 100 nM. COc1ccc(Nc2nc(C)cc(NCCS(=O)(=O)N(C)C)n2)cc1OCCCN1CCCC1 [Compound 893] showed an IC50 of less than 100 nM. With COc1cnc(Nc2cc(NCC3COC3)cnn2)cc1OCCCN1CCCC1 [Compound 894] the IC50 was 100 to 1000 nM. COc1cc2cc(C#N)c(C)nc2cc1OCCCN1CCCC1 [Compound 895] showed an IC50 greater than 10000 nM. With COc1cc2cc(F)c(C)nc2cc1OCCCN1CCCC1 [Compound 896] the IC50 was greater than 10000 nM. CNc1nc2cc(OCCCN3CCCC3)c(OC)cc2cc1F [Compound 897] gave an IC50 of 1000 to 10000 nM. CNC(=O)C1CCN(c2cc3nc(NC)cc(C)c3cc2OC)C1 (centres unmarked) [Compound 900] gave an IC50 greater than 10000 nM. In the case of CNc1cc(C2CCOCC2)c2cc(OC)c(OCCCN3CC(O)C3)cc2n1 [Compound 902], the IC50 is reported as less than 100 nM. CNc1nc2cc(OCCCN3CCCC3)c(OC)cc2cc1Cl [Compound 903] gave an IC50 of 100 to 1000 nM. Compound CNc1cc(C)nc(Nc2ccc(OC)c(C#CCN3CCOCC3)c2)n1 [Compound 904] has an IC50 of 1000 to 10000 nM. For CNc1cc(C)nc(Nc2ccc(OC)c(OC[C@@H](O)CN3CCCC3)c2)n1 [Compound 905], the IC50 was 100 to 1000 nM. CNc1ccnc(Nc2ccc(OC)c(OC[C@@H](O)CN3CCC3)c2)n1 [Compound 907] showed an IC50 of 100 to 1000 nM. In the case of CNc1ccnc(Nc2ccc(OC)c(OC[C@H](O)CN3CCC3)c2)n1 [Compound 908], the IC50 is reported as less than 100 nM. CNc1ccnc(Nc2cnc(OC)c(OC[C@@H]3CCN(C)C3)c2)n1 [Compound 912] was tested, and the IC50 was less than 100 nM. In the case of CNc1ccnc(Nc2cnc(OC)c(OCCCN3CCC3)c2)n1 [Compound 914], the IC50 is reported as less than 100 nM. CNCCCOc1cc(Nc2nccc(NC)n2)ccc1OC [Compound 916] showed an IC50 of less than 100 nM. In the case of CNCCCOc1cc(Nc2nccc(NC)n2)cnc1OC [Compound 917], the IC50 is reported as 100 to 1000 nM. For CNC[C@@H](O)COc1cc(Nc2nccc(NC)n2)cnc1OC [Compound 918], the IC50 was 100 to 1000 nM. For CNc1ccnc(Nc2ccc(OC)c(OC[C@@H](CN3CCCC3)OC)c2)n1 [Compound 919], the IC50 was 1000 to 10000 nM. CNc1ccnc(Nc2ccc(OC)c(OC[C@H](CN3CCCC3)OC)c2)n1 [Compound 920] gave an IC50 of 100 to 1000 nM. Compound CNC[C@H](COc1cc(Nc2nccc(NC)n2)ccc1OC)OC [Compound 921] has an IC50 greater than 10000 nM. Work on CNC[C@@H](COc1cc(Nc2nccc(NC)n2)ccc1OC)OC [Compound 922] yielded an IC50 of 1000 to 10000 nM. With CCN1CC[C@@H](COc2cc(Nc3nccc(NC)n3)ccc2OC)C1 [Compound 927] the IC50 was less than 100 nM. Compound CNc1ccnc(Nc2ccc(OC)c(OC[C@@H]3CCN(C4CC4)C3)c2)n1 [Compound 928] has an IC50 of less than 100 nM. For CNc1ccnc(Nc2ccc(OC)c(OC[C@H]3CN(C)CCO3)c2)n1 [Compound 931], the IC50 was greater than 10000 nM. Work on CCN1CCO[C@@H](COc2cc(Nc3nccc(NC)n3)ccc2OC)C1 [Compound 932] yielded an IC50 of 1000 to 10000 nM. Compound CNc1ccnc(Nc2ccc(OC)c(OC[C@H]3CNCCO3)c2)n1 [Compound 933] has an IC50 of 1000 to 10000 nM. With CNc1ccnc(Nc2ccc(OC)c(OC[C@@H]3CN(C)CCO3)c2)n1 [Compound 936] the IC50 was greater than 10000 nM. CCN1CCO[C@H](COc2cc(Nc3nccc(NC)n3)ccc2OC)C1 [Compound 937] gave an IC50 greater than 10000 nM. CNc1ccnc(Nc2ccc(OC)c(OC[C@@H]3CNCCO3)c2)n1 [Compound 938] showed an IC50 greater than 10000 nM. CNc1ccnc(Nc2ccc(OC)c(OC[C@@H](C)CN3CCC3)c2)n1 [Compound 943] showed an IC50 of 1000 to 10000 nM. With CNc1ccnc(Nc2ccc(OC)c(OC[C@H](C)CN3CCC3)c2)n1 [Compound 945] the IC50 was less than 100 nM. With CCN1CC[C@@H](COc2cc(Nc3nc(C)cc4[nH]ncc34)ncc2OC)C1 [Compound 947] the IC50 was less than 100 nM. CNc1cc(C)nc(Nc2cnc(OC)c(OCCCN3CCC3)c2)n1 [Compound 949] was tested, and the IC50 was less than 100 nM. COc1cc2c(C3CCN(C)CC3)nc(N3CCCC3)nc2cc1OCCCN1CC(O)C1 [Compound 950] gave an IC50 of 100 to 1000 nM. For CCN1CC(COc2cc3nc(NC)nc(C4CCN(C)CC4)c3cc2OC)C1 [Compound 951], the IC50 was less than 100 nM. CNc1nc(C2=CC(C)(C)NC(C)(C)C2)c2cc(OC)c(OCCCN3CCCC3)cc2n1 [Compound 961] was tested, and the IC50 was 1000 to 10000 nM. CNc1cc(C)nc(Nc2ccc(OC)c(OC[C@H](O)CNC3CCC3)c2)n1 [Compound 962] showed an IC50 of 100 to 1000 nM. Compound CNc1cc(C)nc(Nc2cnc(OC)c(OC[C@H](O)CN3CCC3)c2)n1 [Compound 963] has an IC50 of less than 100 nM. With CNCCNCc1cc(Nc2nc(C)cc(NC)n2)ccc1OC [Compound 964] the IC50 was less than 100 nM. CNc1cc(C)nc(Nc2ccc(OC)c(CNCCN3CCC3)c2)n1 [Compound 965] was tested, and the IC50 was less than 100 nM. Work on CNc1ccnc(Nc2cnc(OC)c(OC[C@@H]3CCN(C4CCC4)C3)n2)n1 [Compound 974] yielded an IC50 of less than 100 nM. CNc1cc(C)nc(Nc2ccc(OC)c(OC[C@H](O)CN3CC(C)C3)c2)n1 [Compound 985] was tested, and the IC50 was less than 100 nM. In the case of CNc1cc(C)nc(Nc2ccc(OC)c(OC[C@H](O)CN3CC(F)C3)c2)n1 [Compound 986], the IC50 is reported as 100 to 1000 nM.
